Results: PubChem BioAssay (NCI)
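Briefly, cells in 96-well plates were exposed to five compound concentrations for 48 h, and endpoints were estimated by linear interpolation. TGI is the concentration that stops growth completely.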

Legend:
Assay in all cases: inhibition of tumour cell growth, NCI panel, 48 h
786-0 renal = tested on: 786-0 renal
HCC-2998 colon = tested on: HCC-2998 colon
T-47D breast = tested on: T-47D breast
PC-3 prostate = tested on: PC-3 prostate
U251 CNS = tested on: U251 CNS
CAKI-1 renal = tested on: CAKI-1 renal
SR leukemia = tested on: SR leukemia
SK-MEL-2 melanoma = tested on: SK-MEL-2 melanoma
UO-31 renal = tested on: UO-31 renal

Row | SMILES | TGI (786-0 renal) | TGI (HCC-2998 colon) | TGI (T-47D breast) | TGI (PC-3 prostate) | TGI (U251 CNS) | TGI (CAKI-1 renal) | TGI (SR leukemia) | TGI (SK-MEL-2 melanoma) | TGI (UO-31 renal)
1 | CC(C)(C)OC(=O)N[C@@H](Cc1ccccc1)C(=O)N1CC[C@@H](C(=O)N2[C@H]3CC4CC[C@@]3(CS2(=O)=O)C4(C)C)N1 | > 100 µM | > 100 µM | 51.1 µM | > 100 µM | > 100 µM | > 100 µM | > 100 µM | > 100 µM | 
2 | Cn1c(=O)c2[nH]cnc2n(C)c1=O | > 100 µM | > 100 µM | > 100 µM | > 100 µM |  | > 100 µM | > 100 µM | > 100 µM | > 100 µM
3 | CN(NC(=O)/C(=C/C=C/c1ccccc1)NC(=O)c1ccccc1)C1=C(Cl)C(=O)[N+](c2ccccc2)=CC1 | 39.2 µM |  | 38.8 µM | > 100 µM | 40.2 µM | > 100 µM | 66.6 µM | 70.9 µM | > 100 µM
4 | O=C(n1c(=O)n(-c2ccc([N+](=O)[O-])cc2)c(=O)n1C(=O)C(Cl)(Cl)Cl)C(Cl)(Cl)Cl | > 100 µM | > 100 µM | > 100 µM | > 100 µM | > 100 µM | > 100 µM |  | > 100 µM | > 100 µM
5 | C[N+](C)(C)c1nc(N)nc2c1ncn2C1OC(CO)C(O)C1O (stereo not drawn) | > 100 µM | > 100 µM | > 100 µM | > 100 µM | > 100 µM | > 100 µM | > 100 µM | > 100 µM | > 100 µM
6 | CNc1ccc([N+](=O)[O-])cc1C(=O)N1CCC[C@H]1CO | > 100 µM | > 100 µM | > 100 µM | > 100 µM | > 100 µM | > 100 µM | > 100 µM | > 100 µM | > 100 µM
7 | Cc1cccc(-c2cc(=O)c3c(C)ccnc3[nH]2)c1 | > 100 µM | 11.1 µM | > 100 µM | > 100 µM | > 100 µM | > 100 µM |  | > 100 µM | 
8 | Cc1ccc(Oc2cc(C)ccc2P(=O)(O)O)cc1 | > 100 µM | > 100 µM |  | > 100 µM |  | > 100 µM |  | > 100 µM | > 100 µM
9 | Cc1ccc2c(=O)c3c(O)c4c(cc3n(C)c2c1)OC(C)(C)C=C4 | > 10 µM | > 10 µM | > 10 µM | > 10 µM | > 10 µM | > 10 µM | > 10 µM | > 10 µM | 
10 | Nc1ncc(Cc2nn3c(COc4ccc(Cl)cc4)nnc3s2)s1 | > 100 µM | > 100 µM | > 100 µM | > 100 µM |  | > 100 µM | > 100 µM | > 100 µM | > 100 µM
11 | COC(=O)C1CC(C=O)=C(SC)N1 (stereo not drawn) | > 50 µM | > 50 µM |  | > 50 µM | > 50 µM | > 50 µM |  | > 50 µM | > 50 µM
12 | CC(C)(CN1CCCCC1)C(=O)CC(SCCS(=O)(=O)O)c1ccc(Cl)c(Cl)c1 (stereo not drawn) | 3.4 µM | 26.2 µM |  | 17 µM | 19.3 µM | 12.9 µM | 6.38 µM | 57.3 µM | 16.4 µM
13 | C[C@@H](CC(O)C(O)C(C)(C)O)C1CCC23CC12CCC1[C@@]2(C)CCC(=O)C(C)(C)C2CC(OC2OC(CO)C(O)C(O)C2O)[C@]13C (stereo partly drawn) | > 10 µM | > 10 µM | > 10 µM | > 10 µM | > 10 µM | > 10 µM |  | > 10 µM | > 10 µM
14 | NC(=O)CN1CCN(c2nc(N3CCCC3)c3nc(Cl)c(NCc4ccccc4)nc3n2)CC1 | 18 µM | 15.4 µM | 20.7 µM | 24.9 µM | 15.5 µM | > 50 µM |  | 17.3 µM | 21.9 µM
15 | O=C(NC(Cc1c[nH]c2ccccc12)C(=O)O)/C(=C/c1ccccc1)NC(=O)c1ccccc1 (stereo not drawn) | > 100 µM | > 100 µM | > 100 µM | > 100 µM | > 100 µM | > 100 µM | > 100 µM | > 100 µM | > 100 µM
16 | CC(=O)Nc1oc(C)nc1C#N | > 100 µM |  |  | > 100 µM | > 100 µM | > 100 µM | > 100 µM | > 100 µM | 
17 | COc1ccc(/C=C(\C#N)c2nc(-c3cc4ccccc4oc3=O)cs2)cc1 | 41.4 µM | > 100 µM | > 100 µM | > 100 µM | 27.3 µM | > 100 µM | > 100 µM | > 100 µM | 57.4 µM
18 | C=C1C(=O)O[C@H]2[C@@H](O)[C@H](C)CCC/C(C)=C/CC[C@@]3(C)O[C@@H]3C[C@@H]12 | 14.9 µM | 26 µM | 12.3 µM | > 57.6 µM | 26.9 µM | 6.9 µM | 14.7 µM | 48.9 µM | 18.2 µM
19 | NC(=O)Nc1n[nH]c(-c2ccccc2)n1 | > 100 µM | > 100 µM | > 100 µM | > 100 µM | > 100 µM | > 100 µM |  | > 100 µM | > 100 µM
20 | CC(C)=CCC/C(C)=C/CCC1(C)C2COC(=O)C21 (stereo not drawn) | > 100 µM | > 100 µM |  | > 100 µM | > 100 µM | > 100 µM | > 100 µM | > 100 µM | > 100 µM
21 | O=c1[nH]nc(Cc2ccc([N+](=O)[O-])cc2)[nH]1 | > 100 µM | > 100 µM | > 100 µM | > 100 µM | > 100 µM | > 100 µM | > 100 µM | > 100 µM | > 100 µM
22 | COC(=O)[C@]12CCC(=O)N1[C@H](C(=O)O)Cc1c2[nH]c2ccccc12 | > 100 µM | > 100 µM | > 100 µM | > 100 µM | > 100 µM | > 100 µM | > 100 µM | > 100 µM | > 100 µM
23 | O/N=C1/CCCCC1NO (stereo not drawn) | > 100 µM | > 100 µM | > 100 µM | > 100 µM | > 100 µM | > 100 µM | > 100 µM | > 100 µM | > 100 µM
24 | O=C1C(=O)C(CCCO)(CCCO)CCCCCCCCC1(CCCO)CCCO | > 100 µM | > 100 µM | > 100 µM | > 100 µM | > 100 µM | > 100 µM | > 100 µM | > 100 µM | 60.4 µM
25 | NC(Cc1ccccc1)C(=O)O (stereo not drawn) | > 100 µM | > 100 µM | > 100 µM | > 100 µM | > 100 µM | > 100 µM |  | > 100 µM | > 100 µM
